# Measurements as given in publication PMC9319634, “Antibacterial Peptide NP-6 Affects Staphylococcus aureus by Multiple Modes of Action” (International Journal of Molecular Sciences, 2022).
# Peptide text beside a SMILES is read from it.
# How the values were obtained:
# RAW 264.7 cells = assay: CCK-8 cytotoxicity assay; type: cell-based; conditions: CCK-8, 48 h incubation, absorbance 450 nm, mean, n = 3
# Experimental: RAW 264.7 cells were purchased from the National Collection of Authenticated Cell Cultures (Shanghai, China). The cells were cultured in DMEM containing 10% FBS at 37 °C in a 5% CO2 incubator at constant temperature.
# The Cell Counting Kit-8 (CCK-8) assay was conducted to measure the cytotoxicity of the peptides towards RAW 264.7 cells according to Deng et al.. The cells were incubated in Roswell Park Memorial Institute (RPMI)-1640 medium at 37 °C in a humidified atmosphere with 5% CO2. Then, they were added to a 96-well plate (3 × 10^3 cells/well) to adhere for 18 h. A total of 100 µL of the samples with different concentrations (256, 512, 1024, and 2048 µg/mL) diluted by H2O were added and incubated for another 48 h, after which the medium was disposed. A total of 100 µL of the CCK-8 test solution was added and incubated for 2 h at 37 °C. The absorbance values of the mixture at 450 nm were determined. The survival rate of cells was calculated according to the following formula:(2) Survival rate (%)=absorbancesample−absorbanceblank/absorbancecontrol−absorbanceblank×100
# mouse red blood cells = assay: Hemolysis assay; type: cell-based; conditions: 512 µg/mL (1MIC); mouse red blood cells in PBS 0.01 M pH 7.4, 37 °C, 1 h; absorbance 595 nm; 1% Triton X-100 = 100%; mean ± SD, n = 3
# Experimental: The hemolytic activity of the peptide was evaluated according to Tang et al. with minor modifications. To prepare the red blood cell solution, 1.0 mL of fresh mouse red blood cells was centrifuged for 5 min at 1000× g, and the precipitates were resuspended in 10 mL of PBS (0.01 M, pH 7.4). A total of 50 µL of serial dilutions of peptides (2048, 1024, 512, 256, 128, 64, 32, 16, 8, and 4 µg/mL) were prepared in a 96-well plate by dissolving NP-6 and Nisin A in PBS (0.01 M, pH 7.4). Then, 50 µL of freshly prepared mouse red blood cell solution was added and incubated at 37 °C for 1 h. A total of 50 µL of PBS buffer only and 50 µL of Triton X-100 1% (w/v) were mixed with 50 µL of mouse red blood cell solution as negative and positive controls, respectively. After 1 h of incubation, all the samples were centrifuged at 1000× g for 5 min. The supernatant was collected, and the absorbance was at 595 nm with a UV–vis instrument at 25 °C. The percent hemolysis was calculated as the following equation:(1) %hemolysis=absorbancesample−absorbancenegative/absorbancepositive−absorbancenegative×100
# Mouse red blood cells that were suspended in PBS and 1% Triton X-100 represented zero hemolysis and 100% hemolysis, respectively.
# [1] = Serum stability (antimicrobial activity after incubation in fetal bovine serum, plate count); type: in vitro ADME; conditions: peptide 1.0 mg/mL in 50% fetal bovine serum, 37 °C, 0, 3 and 6 h; remaining antimicrobial activity by plate count (CFU); repeated three times
# Experimental: The serum stability assay was conducted to evaluate the effect of serum on the antimicrobial activity of NP-6 using a method that was reported in a previous study. Peptide (1.0 mg/mL) was added to 50% fetal bovine serum and incubated at 37 °C for 0, 3, and 6 h, respectively. The cells that were incubated with PBS, NP-6, and serum were conducted as a blank and a control. The antimicrobial activity of NP-6 was measured using the plate count method. These assays were repeated three times independently. The inhibition rate of samples was calculated according to the following formula:(3) Inhibition rate (%)=Nblank−Nsample/Nblank×100 where Nblank is the colony forming units (CFU) of cells that were incubated with PBS and Nsample is the CFU of cells that were incubated with NP-6, NP-6+ serum, and serum, respectively. The inhibition rate of NP-6+ serum is expressed as the relative value to NP-6.
smiles,measurement,setting,value
CC[C@H](C)[C@H](NC(=O)CNC(=O)[C@@H](NC(=O)[C@H](CCCCN)NC(=O)[C@@H](NC(=O)[C@H](CCCCN)NC(=O)[C@H](CCCCN)NC(=O)[C@H](CC(=O)O)NC(=O)CNC(=O)[C@H](C)N)[C@@H](C)CC)[C@@H](C)CC)C(=O)N[C@@H](CC(N)=O)C(=O)NCC(=O)N[C@@H](Cc1ccccc1)C(=O)NCC(=O)N[C@@H](CCCNC(=N)N)C(=O)N[C@H](C(=O)NCC(=O)N[C@@H](CCCNC(=N)N)C(=O)N[C@@H](CC(C)C)C(=O)O)[C@@H](C)CC [NP-6] (H-AGDKKIKIGINGFGRIGRL-OH),survival rate of RAW264.7 cells,RAW 264.7 cells; 1 × MIC (512 µg/mL),72.56%
same,survival rate of RAW264.7 cells,RAW 264.7 cells; 2 × MIC (1024 µg/mL),20.26%
same,hemolysis activity,mouse red blood cells,2.39 ± 0.13%
same,inhibition rate of NP-6 + serum samples relative to NP-6,[1],exceeded 80%
